{"source": "patent US4935435A", "about": "“Use of tetrazole derivatives” (May & Baker Limited, priority 1988, dated 1990)", "key": {"[1]": {"test_system": "collagen-induced arthritis in rats", "assay": "collagen-induced arthritis in rats (joint size by electronic calipers, erosion and inflammation)", "format": "in vivo, rat", "procedure": "Joint sizes were measured periodically, for 70 days, by means of electronic calipers placed across the tibio-tarsal junction."}, "[2]": {"test_system": "collagen-induced arthritis in rats", "assay": "X-radiography of hind paws on day 71, collagen-induced arthritis in rats", "format": "in vivo", "conditions": "rat hind paws; 71st day; oral 30 mg/kg per day; versus control", "procedure": "On the 71st day the hind paws were examined by X-radiography. Joint damage was assessed according to five parameters and scored on an arbitrary scale of 0 to 5."}}, "data": [{"smiles": "CC(=O)c1cc(F)cc(NC(=O)c2nnn[nH]2)c1O", "note": "[compound A, 3'-Acetyl-5'-fluoro-2'-hydroxytetrazole-5-carboxanilide]", "values": [{"measurement": "mean joint diameter (tibio-tarsal junction) over the 70 days", "setting": "[1]; oral 30 mg/kg per day, 70 days, control animals increased from 7.6 mm to 8.1 mm", "result": 7.7, "unit": "mm"}, {"measurement": "erosion and inflammation caused by collagen-induced arthritis", "setting": "[1]; oral, 30 mg/kg body weight per day, compared with control animals", "result": "inhibited erosion and inflammation"}, {"measurement": "joint damage by X-radiography, five parameters scored on an arbitrary scale of 0 to 5", "setting": "[2]", "result": "For each of the five parameters the joints of the control animals were more severely damaged than those of the treated animals"}]}]}
